According to patent publication US12077503B2, “Substituted cyclic amides and their use as herbicides” (FMC CORPORATION, priority 2015, dated 2024):

How the values were obtained:
Format in all cases: in vivo
[1] = test system: velvetleaf (Abutilon theophrasti); assay: Test G Post-Emergence Protocol; conditions: Abutilon theophrasti, post-emergence, 312 h, read-out: Velvetleaf damage rating; for pest or weed control at 15.625 g/ha: 15.625 g ai/ha, evaluated after 13 days (100=total damage to plant; 0=no damage to plant); for pest or weed control at 62.5 g/ha: 62.5 g ai/ha; for pest or weed control at 62.5 g/ha / pest or weed control at 250 g/ha: evaluated after 13 days, 100=total damage to plant, 0=no damage to plant; for pest or weed control at 250 g/ha: 250 g ai/ha
Outline: (§1)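 Post-emergence herbicidal damage, scored visually 0–100 at 13 days. Application at 15.625, 62.5 or 250 g/ha onto 8-day-old plants grown under glasshouse control.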

[2] = test system: giant foxtail (Setaria faberi); assay: Test G Post-Emergence Protocol; conditions: Setaria faberi, post-emergence, 312 h, read-out: Foxtail, Giant damage rating; for pest or weed control at 15.625 g/ha: 15.625 g ai/ha, evaluated after 13 days (100=total damage to plant; 0=no damage to plant); for pest or weed control at 62.5 g/ha: 62.5 g ai/ha; for pest or weed control at 62.5 g/ha / pest or weed control at 250 g/ha: evaluated after 13 days, 100=total damage to plant, 0=no damage to plant; for pest or weed control at 250 g/ha: 250 g ai/ha
Outline: as §1

[3] = test system: ivy-leaved morning glory (Ipomoea hederacea); assay: Test G Post-Emergence Protocol; conditions: Ipomoea, post-emergence, 312 h, read-out: Morningglory, Ivy-leaved damage rating; for pest or weed control at 15.625 g/ha: 15.625 g ai/ha, evaluated after 13 days (100=total damage to plant; 0=no damage to plant); for pest or weed control at 62.5 g/ha: 62.5 g ai/ha; for pest or weed control at 62.5 g/ha / pest or weed control at 250 g/ha: evaluated after 13 days, 100=total damage to plant, 0=no damage to plant; for pest or weed control at 250 g/ha: 250 g ai/ha
Outline: as §1

[4] = test system: barnyardgrass (Echinochloa crus-galli); assay: Test G Post-Emergence Protocol; conditions: Echinochloa crus-galli, post-emergence, 312 h, read-out: Barnyardgrass damage rating; for pest or weed control at 15.625 g/ha: 15.625 g ai/ha, evaluated after 13 days (100=total damage to plant; 0=no damage to plant); for pest or weed control at 62.5 g/ha: 62.5 g ai/ha; for pest or weed control at 62.5 g/ha / pest or weed control at 250 g/ha: evaluated after 13 days, 100=total damage to plant, 0=no damage to plant; for pest or weed control at 250 g/ha: 250 g ai/ha
Outline: as §1

corn (Zea mays) [5] = assay: Test G Post-Emergence Protocol; conditions: Zea mays, post-emergence, 312 h, read-out: Corn damage rating; for plant injury at 15.625 g/ha: 15.625 g ai/ha, evaluated after 13 days (100=total damage to plant; 0=no damage to plant); for plant injury at 62.5 g/ha: 62.5 g ai/ha; for plant injury at 62.5 g/ha / plant injury at 250 g/ha: evaluated after 13 days, 100=total damage to plant, 0=no damage to plant; for plant injury at 250 g/ha: 250 g ai/ha
Outline: as §1

[6] = test system: redroot pigweed (Amaranthus retroflexus); assay: Test G Post-Emergence Protocol; conditions: Amaranthus retroflexus, post-emergence, 312 h, read-out: Pigweed, Redroot damage rating; for pest or weed control at 15.625 g/ha: 15.625 g ai/ha, evaluated after 13 days (100=total damage to plant; 0=no damage to plant); for pest or weed control at 62.5 g/ha: 62.5 g ai/ha; for pest or weed control at 62.5 g/ha / pest or weed control at 250 g/ha: evaluated after 13 days, 100=total damage to plant, 0=no damage to plant; for pest or weed control at 250 g/ha: 250 g ai/ha
Outline: as §1

[7] = test system: velvetleaf (Abutilon theophrasti); assay: Test G Pre-Emergence Protocol; conditions: Abutilon theophrasti, pre-emergence, 312 h, evaluated after 13 days; for pest or weed control at 15.625 g/ha: 15.625 g ai/ha; for pest or weed control at 15.625 g/ha / pest or weed control at 250 g/ha: read-out: Velvetleaf damage rating (100=total damage to plant; 0=no damage to plant); for pest or weed control at 62.5 g/ha: 62.5 g ai/ha, 100=total damage to plant, 0=no damage to plant, read-out: Velvetleaf damage rating; for pest or weed control at 250 g/ha: 250 g ai/ha
Outline: (§2)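 Pre-emergence spray, 15.625/62.5/250 g/ha, vehicle acetone:water 50:50 + 0.5% Tween 20, applied 1 d after sowing. Glasshouse 24/16° C, 14 h light, 65% RH, watered twice daily. Visual damage rating at 13 d, 0–100 scale.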

[8] = test system: giant foxtail (Setaria faberi); assay: Test G Pre-Emergence Protocol; conditions: Setaria faberi, pre-emergence, 312 h, evaluated after 13 days; for pest or weed control at 15.625 g/ha: 15.625 g ai/ha; for pest or weed control at 15.625 g/ha / pest or weed control at 250 g/ha: read-out: Foxtail, Giant damage rating (100=total damage to plant; 0=no damage to plant); for pest or weed control at 62.5 g/ha: 62.5 g ai/ha, 100=total damage to plant, 0=no damage to plant, read-out: Foxtail, Giant damage rating; for pest or weed control at 250 g/ha: 250 g ai/ha
Outline: as §2

[9] = test system: ivy-leaved morning glory (Ipomoea hederacea); assay: Test G Pre-Emergence Protocol; conditions: Ipomoea, pre-emergence, 312 h, evaluated after 13 days; for pest or weed control at 15.625 g/ha: 15.625 g ai/ha; for pest or weed control at 15.625 g/ha / pest or weed control at 250 g/ha: read-out: Morningglory, Ivy-leaved damage rating (100=total damage to plant; 0=no damage to plant); for pest or weed control at 62.5 g/ha: 62.5 g ai/ha, 100=total damage to plant, 0=no damage to plant, read-out: Morningglory, Ivy-leaved damage rating; for pest or weed control at 250 g/ha: 250 g ai/ha
Outline: as §2

[10] = test system: barnyardgrass (Echinochloa crus-galli); assay: Test G Pre-Emergence Protocol; conditions: Echinochloa crus-galli, pre-emergence, 312 h, evaluated after 13 days; for pest or weed control at 15.625 g/ha: 15.625 g ai/ha; for pest or weed control at 15.625 g/ha / pest or weed control at 250 g/ha: read-out: Barnyardgrass damage rating (100=total damage to plant; 0=no damage to plant); for pest or weed control at 62.5 g/ha: 62.5 g ai/ha, 100=total damage to plant, 0=no damage to plant, read-out: Barnyardgrass damage rating; for pest or weed control at 250 g/ha: 250 g ai/ha
Outline: as §2

corn (Zea mays) [11] = assay: Test G Pre-Emergence Protocol; conditions: Zea mays, pre-emergence, 312 h, evaluated after 13 days; for plant injury at 15.625 g/ha: 15.625 g ai/ha; for plant injury at 15.625 g/ha / plant injury at 250 g/ha: read-out: Corn damage rating (100=total damage to plant; 0=no damage to plant); for plant injury at 62.5 g/ha: 62.5 g ai/ha, 100=total damage to plant, 0=no damage to plant, read-out: Corn damage rating; for plant injury at 250 g/ha: 250 g ai/ha
Outline: as §2

[12] = test system: redroot pigweed (Amaranthus retroflexus); assay: Test G Pre-Emergence Protocol; conditions: Amaranthus retroflexus, pre-emergence, 312 h, evaluated after 13 days; for pest or weed control at 15.625 g/ha: 15.625 g ai/ha; for pest or weed control at 15.625 g/ha / pest or weed control at 250 g/ha: read-out: Pigweed, Redroot damage rating (100=total damage to plant; 0=no damage to plant); for pest or weed control at 62.5 g/ha: 62.5 g ai/ha, 100=total damage to plant, 0=no damage to plant, read-out: Pigweed, Redroot damage rating; for pest or weed control at 250 g/ha: 250 g ai/ha
Outline: as §2

With `Cc1cc([C@H]2CN(C)C(=O)[C@@H]2C(=O)Nc2cccc(F)n2)cc(C(F)(F)F)c1` (racemic) [Compound 1801] the pest or weed control at 15.625 g/ha [1] was 0%, the pest or weed control at 62.5 g/ha [1] was 0% and the pest or weed control at 250 g/ha [1] was 0%. The pest or weed control at 15.625 g/ha [2] was 70%, the pest or weed control at 62.5 g/ha [2] was 80% and the pest or weed control at 250 g/ha [2] was 80%. The pest or weed control at 15.625 g/ha [3] was 0%, the pest or weed control at 62.5 g/ha [3] was 10% and the pest or weed control at 250 g/ha [3] was 50%. For the same compound, the pest or weed control at 15.625 g/ha [4] was 20%, the pest or weed control at 62.5 g/ha [4] was 60% and the pest or weed control at 250 g/ha [4] was 70%. The plant injury at 15.625 g/ha (corn (Zea mays) [5]) was 10%, the plant injury at 62.5 g/ha (corn (Zea mays) [5]) was 70% and the plant injury at 250 g/ha (corn (Zea mays) [5]) was 80%. For the same compound, the pest or weed control at 15.625 g/ha [6] was 0%, the pest or weed control at 62.5 g/ha [6] was 0% and the pest or weed control at 250 g/ha [6] was 40%. The pest or weed control at 15.625 g/ha [7] was 0%, the pest or weed control at 62.5 g/ha [7] was 10% and the pest or weed control at 250 g/ha [7] was 20%. The pest or weed control at 15.625 g/ha [8] was 80%, the pest or weed control at 62.5 g/ha [8] was 90% and the pest or weed control at 250 g/ha [8] was 90%. For the same compound, the pest or weed control at 15.625 g/ha [9] was 0%, the pest or weed control at 62.5 g/ha [9] was 0% and the pest or weed control at 250 g/ha [9] was 40%. The pest or weed control at 15.625 g/ha [10] was 40%, the pest or weed control at 62.5 g/ha [10] was 80% and the pest or weed control at 250 g/ha [10] was 90%. The plant injury at 15.625 g/ha (corn (Zea mays) [11]) was 10%, the plant injury at 62.5 g/ha (corn (Zea mays) [11]) was 40% and the plant injury at 250 g/ha (corn (Zea mays) [11]) was 80%. It also gave a pest or weed control at 15.625 g/ha [12] of 0%, a pest or weed control at 62.5 g/ha [12] of 20% and a pest or weed control at 250 g/ha [12] of 40%.

`Cc1c(F)cccc1NC(=O)[C@@H]1C(=O)N(C)C[C@H]1c1ccnc(OCC(F)(F)F)c1` (racemic) [Compound 1802] was tested, and the pest or weed control at 15.625 g/ha [1] was 0%, the pest or weed control at 62.5 g/ha [1] was 40% and the pest or weed control at 250 g/ha [1] was 70%. It also gave a pest or weed control at 15.625 g/ha [2] of 40%, a pest or weed control at 62.5 g/ha [2] of 70% and a pest or weed control at 250 g/ha [2] of 80%. The pest or weed control at 15.625 g/ha [3] was 0%, the pest or weed control at 62.5 g/ha [3] was 0% and the pest or weed control at 250 g/ha [3] was 0%. The pest or weed control at 15.625 g/ha [4] was 0%, the pest or weed control at 62.5 g/ha [4] was 60% and the pest or weed control at 250 g/ha [4] was 70%. The plant injury at 15.625 g/ha (corn (Zea mays) [5]) was 0%, the plant injury at 62.5 g/ha (corn (Zea mays) [5]) was 0% and the plant injury at 250 g/ha (corn (Zea mays) [5]) was 60%. It also gave a pest or weed control at 15.625 g/ha [6] of 0%, a pest or weed control at 62.5 g/ha [6] of 0% and a pest or weed control at 250 g/ha [6] of 40%. It also gave a pest or weed control at 15.625 g/ha [7] of 0%, a pest or weed control at 62.5 g/ha [7] of 20% and a pest or weed control at 250 g/ha [7] of 70%. For the same compound, the pest or weed control at 15.625 g/ha [8] was 70%, the pest or weed control at 62.5 g/ha [8] was 90% and the pest or weed control at 250 g/ha [8] was 90%. For the same compound, the pest or weed control at 15.625 g/ha [9] was 0%, the pest or weed control at 62.5 g/ha [9] was 0% and the pest or weed control at 250 g/ha [9] was 40%. The pest or weed control at 15.625 g/ha [10] was 10%, the pest or weed control at 62.5 g/ha [10] was 70% and the pest or weed control at 250 g/ha [10] was 90%. For the same compound, the plant injury at 15.625 g/ha (corn (Zea mays) [11]) was 0%, the plant injury at 62.5 g/ha (corn (Zea mays) [11]) was 0% and the plant injury at 250 g/ha (corn (Zea mays) [11]) was 70%. The pest or weed control at 15.625 g/ha [12] was 0%, the pest or weed control at 62.5 g/ha [12] was 10% and the pest or weed control at 250 g/ha [12] was 30%.
